Laboratory results as given in US10426850B2, “Collagen mimetic peptides for targeting collagen strands for in vitro and in vivo imaging and therapeutic use” (The Johns Hopkins University, priority 2011, dated 2019).
Values belong to the molecule of their own block, whether it stands above or below them. Non-standard residues stand in square brackets, D forms with d. No end group written: not given here. *: point of attachment. IRDye800CW = CC1(C)C(/C=C/C2=C(Oc3ccc(S(=O)(=O)O)cc3)C(=C/C=C3/N(CCCCS(=O)(=O)O)c4ccc(S(=O)(=O)O)cc4C3(C)C)/CCC2)=[N+](CCCCCC(=O)*)c2ccc(S(=O)(=O)[O-])cc21; Hyp = O=C(O)[C@@H]1C[C@@H](O)CN1; CF = 5(6)-carboxyfluorescein; Ahx = NCCCCCC(=O)O

What was measured:
[1] = Circular dichroism spectra and thermal melting of CMPs; assay type: physicochemical; conditions: for Tm (CD melting curve, triple helix): after UV exposure (photo-decaged), heating rate 60° C./hr, Tm about 10° C. higher than equilibrium Tm
Procedure: Circular dichroism spectroscopy. CD spectra were collected on JASCO 715 spectrophotometer equipped with a JASCO PTC-348 WI temperature controller and quartz cells (0.1 mm path length). CMP solutions (320 μL, 150 μM in 1×PBS) were stored at 4° C. for at least 24 hours before measurement. For photo-decaging, samples were exposed to 365 nm UV light for at least 30 minutes before the 4° C. incubation. The thermal melting studies were performed by measuring the ellipticity at 225 nm with 60° C./hr heating rate. Raw CD signal was normalized to mean residue ellipticity based on the peptide's length and concentration (Biopolymers 95:94-104 (2011)). Melting temperatures (Tm) were determined by fitting the mean residue ellipticity to a two-state model (Org Lett 8:4735-4738 (2006)). To measure the refolding kinetics, CMP solution was thermally denatured at 75° C. for 10 minutes in a cuvette and rapidly quenched to 25° C. in an ice-water bath, after which the CD signal at 225 nm was observed over time at 25° C. The CD spectra of intact and MMP-1 cleaved type I collagen (FIG. 12) was measured in 90 μg/mL protein solutions in 20 mM acetic acid buffer at 22° C. The 37° C. thermal stability profile (FIG. 2E, inset) was generated by monitoring the ellipticity at 222 nm immediately after transferring the cuvette to a temperature controlled cuvette holder pre-set to 37° C. The Tm values reported in this study are approximately 10° C. higher than the equilibrium Tm due to high heating rate (60° C./hr) (Biopolymers 73:682-688 (2004)).
Synthesis of fluorescently labeled collagen mimetic peptides. Non-caged CMPs were synthesized using Fmoc-mediated solid-phase chemistry by manual or automated synthesis as described previously.2,4 The caged NB(GPO)9 (SEQ ID NO: 12) was prepared by introducing Fmoc(N-o-nitrobenzyl)Gly-OH (synthesized according to Tatsu et al. 2,5) in the middle of the standard solid-phase peptide synthesis. The Hyp residue following the NBGly was conjugated using 9 molar equiv of Fmoc-Hyp(tBu)-OH, 8.8 molar equiv of PyBroP, and 20 molar equiv of DIPEA for over 24 hr to overcome the low reactivity caused by the steric hindrance of the NB cage group. The remaining sequence including the GGG spacer was completed by HBTU chemistry, followed by on-resin labeling with 6 molar equivalent of CF or TAMRA activated by 6 molar equivalent of PyAOP for over 24 hr. The full length fluorescent CMPs were cleaved from resin by treating the resin with TFA/TIS/H2O (95:2.5:2.5) for 3 hr and the cleaved peptide was purified by reverse phase HPLC on a Vydac C18 column using a linear gradient mixture of water (0.1% TFA) and acetonitrile (0.1% TFA) (5-45% acetonitrile gradient in 40 min). The purified peptides were analyzed by MALDI-TOF MS (FIG. 27): m/z calculated 2975.1 [M+Na+] for CF(GPO)9 (SEQ ID NO: 10), found 2975.0 [M+Na+]; m/z calculated 2975.1 [M+Na+] for ^SG9P9O9 (SEQ ID NO: 5), found 2973.5 [M+Na+]; m/z calculated 3110.2 [M+Na+] for CF^NB(GPO)9 (SEQ ID NO: 4), found 3109.4 [M+Na+]; m/z calculated 2975.1 [M+Na+] for CF(GPO)9 (SEQ ID NO: 10) [CF^NB(GPO)9 (SEQ ID NO: 4) after UV decaging], found 2974.1 [M+Na+]; m/z calculated 3142.3 [M+H+] for TAMRA-NB(GPO)9 (SEQ ID NO: 12), found 3141.4 [M+H+]; m/z calculated 3007.2 [M+H+] for TAMRA-(GPO)9 (SEQ ID NO: 15), [TAMRA-NB(GPO)9 (SEQ ID NO: 12) after decaging], found 3006.3 [M+H+]. CD spectra and CD melting curves of the labeled CMPs were acquired in PBS solutions using a JASCO 715 CD spectrophotometer. The solutions were incubated for at least 24 hours at 4° C. prior to CD experiment to ensure folding (FIG. 28).

[2] = biological target: T1, type I collagen films (fibrillar collagen) (Rattus norvegicus, UniProt P02454+P02466); test: Photo-triggered CMP binding assay on collagen films; conditions: 4° C., overnight incubation
T1 construct: Collagen solution (200 μL, 3.71 mg/mL, type I rat tail, BD Science); purchased BD Science; host or cells: rat tail
Procedure: (§1) Collagen/gelatin binding assays. Collagen solution (200 μL, 3.71 mg/mL, type I rat tail, BD Science) in 0.02 N acetic acid was added to each well of a 96-well black/clear-bottom plate (Costar) and air-dried. To make gelatin films, the same collagen solution was denatured at 70° C. for 15 minutes before applying to the well. The dried films were neutralized and washed with 1×PBS buffer (pH 7.4) and deionized water. PBS solution of carboxyfluorescein-labeled caged CMP (40 μL, 50 μM, unless indicated otherwise) pre-equilibrated at 4° C. was added onto each reconstituted collagen or gelatin film and exposed to 365 nm UV light (10 mW/cm^2, from mercury arc lamp) for 11 minutes on ice. Wells for the UV-negative control groups were covered with aluminum foil to block UV exposure. After incubation at 4° C. for over 3 hours (unless indicated otherwise), the unbound materials were removed by rinsing with PBS buffer and deionized water. The films were allowed to dry in dark, after which the fluorescence (ex: 489 nm, em: 533 nm) was measured with a SpectraMax Gemini XPS microplate reader (Molecular Devices). Each binding experiment was done in triplicate.

[3] = biological target: T2, thermally-denatured collagen (gelatin) films (Rattus norvegicus, UniProt P02454+P02466); test: Photo-triggered CMP binding assay on gelatin films; conditions: after photo-cleavage, type I gelatin films
T2 construct: To make gelatin films, the same collagen solution was denatured at 70° C. for 15 minutes; purchased BD Science; host or cells: rat tail
Procedure: as §1

[4] = system: Panc02 and Panc198 tumors; test: In vivo tumor targeting, NIRF imaging, pancreatic xenografts; design: species or system mouse; conditions: approximately 4 nmol, tail vein; 96 hr post injection
Procedure: Murine Panc02 and human Panc198 cells were acquired from the ATCC (Rockville, Md.) and cultured in RPMI1640 supplemented with 10% FBS, 10 μg/mL of streptomycin and 10 I.U./mL of penicillin at 37° C. in 5% CO2 and humidified air until 80-95% confluence. The cells were then trypsinized and formulated at either 2×10^6 cells/100 μL (Panc198) or 1×10^6 cells/100 μL (Panc02) followed by subcutaneous inoculation into 12-week-old female athymic nu/nu mice (NCI). Panc198 and Panc02 cells were inoculated subcutaneously behind the left and right shoulder, respectively. When the Panc02 xenograft reached 4-6 mm in diameter (˜2 weeks after inoculation), each mouse was intravenously administered with solution containing 4 nmol of photo-activated IR-Ahx-(GPO)9 (SEQ ID NO: 9) or IR-Ahx-^SG9P9O9 (SEQ ID NO: 8) and 1 nmol of cysteine, followed by MMPsense injection and NIRF imaging as described.

[5] = system: PC-3 prostate tumor xenografts (PC3-PIP, PC3-flu); test: In vivo tumor targeting, NIRF imaging, prostate xenografts; design: species or system mouse; conditions: 3.7 nmol, tail vein, UV-activated, imaging over four days (to 96 hours PI)
[6] = system: collagen remodeling in bones and cartilages; conditions: 4 nmol intravenous, photo-decaged, four days after injection
[7] = biological target: T3, mouse type IV collagen (denatured, reduced, in SDS-PAGE) (mouse, UniProt P02463 28-1669; P08122 26-1707); test: fluorescent staining of SDS-PAGE gel
T3 construct: also called collagen type IV

[8] = biological target: T4, MMP-1 cleaved type I collagen (3/4 and 1/4 fragments) (rat, UniProt P02454 152-1207; P02466 86-1125); test: fluorescent staining of SDS-PAGE gel
T4 construct: Tested kept at 22 C, after 1 min at 37 C (spontaneously denatured), and as denatured bands in SDS-PAGE; also called MMP-1 digested collagens; MMP-Col
T4 sequence (P02454 152-1207, chain 1 of 2): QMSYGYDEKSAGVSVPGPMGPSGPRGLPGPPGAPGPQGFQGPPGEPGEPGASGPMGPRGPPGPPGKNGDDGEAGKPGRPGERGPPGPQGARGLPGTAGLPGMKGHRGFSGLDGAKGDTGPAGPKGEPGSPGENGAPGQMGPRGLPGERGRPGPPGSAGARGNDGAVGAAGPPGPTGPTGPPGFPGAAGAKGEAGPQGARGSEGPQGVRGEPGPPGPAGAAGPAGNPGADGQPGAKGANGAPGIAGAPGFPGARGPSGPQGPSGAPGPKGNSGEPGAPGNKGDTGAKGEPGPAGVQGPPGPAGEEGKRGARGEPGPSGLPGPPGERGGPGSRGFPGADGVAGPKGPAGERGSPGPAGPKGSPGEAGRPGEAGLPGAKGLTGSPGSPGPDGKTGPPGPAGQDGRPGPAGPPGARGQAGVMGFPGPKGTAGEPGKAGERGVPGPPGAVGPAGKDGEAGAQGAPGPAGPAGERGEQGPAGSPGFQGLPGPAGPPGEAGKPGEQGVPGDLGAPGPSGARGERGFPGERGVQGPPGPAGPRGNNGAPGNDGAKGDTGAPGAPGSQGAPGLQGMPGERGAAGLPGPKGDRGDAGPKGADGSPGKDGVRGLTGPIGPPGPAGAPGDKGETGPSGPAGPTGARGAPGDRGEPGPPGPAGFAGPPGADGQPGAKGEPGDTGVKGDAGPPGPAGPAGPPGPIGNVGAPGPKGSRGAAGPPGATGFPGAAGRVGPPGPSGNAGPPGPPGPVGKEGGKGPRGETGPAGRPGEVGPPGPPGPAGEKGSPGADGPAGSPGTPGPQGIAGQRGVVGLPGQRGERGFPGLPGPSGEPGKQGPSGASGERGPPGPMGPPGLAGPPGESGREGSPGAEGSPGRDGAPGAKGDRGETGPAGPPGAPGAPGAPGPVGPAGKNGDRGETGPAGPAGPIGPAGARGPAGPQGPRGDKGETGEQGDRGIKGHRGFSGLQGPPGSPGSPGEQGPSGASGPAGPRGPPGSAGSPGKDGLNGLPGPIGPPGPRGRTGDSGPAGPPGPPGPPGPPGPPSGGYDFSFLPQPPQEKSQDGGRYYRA
T4 sequence (P02466 86-1125, chain 2 of 2): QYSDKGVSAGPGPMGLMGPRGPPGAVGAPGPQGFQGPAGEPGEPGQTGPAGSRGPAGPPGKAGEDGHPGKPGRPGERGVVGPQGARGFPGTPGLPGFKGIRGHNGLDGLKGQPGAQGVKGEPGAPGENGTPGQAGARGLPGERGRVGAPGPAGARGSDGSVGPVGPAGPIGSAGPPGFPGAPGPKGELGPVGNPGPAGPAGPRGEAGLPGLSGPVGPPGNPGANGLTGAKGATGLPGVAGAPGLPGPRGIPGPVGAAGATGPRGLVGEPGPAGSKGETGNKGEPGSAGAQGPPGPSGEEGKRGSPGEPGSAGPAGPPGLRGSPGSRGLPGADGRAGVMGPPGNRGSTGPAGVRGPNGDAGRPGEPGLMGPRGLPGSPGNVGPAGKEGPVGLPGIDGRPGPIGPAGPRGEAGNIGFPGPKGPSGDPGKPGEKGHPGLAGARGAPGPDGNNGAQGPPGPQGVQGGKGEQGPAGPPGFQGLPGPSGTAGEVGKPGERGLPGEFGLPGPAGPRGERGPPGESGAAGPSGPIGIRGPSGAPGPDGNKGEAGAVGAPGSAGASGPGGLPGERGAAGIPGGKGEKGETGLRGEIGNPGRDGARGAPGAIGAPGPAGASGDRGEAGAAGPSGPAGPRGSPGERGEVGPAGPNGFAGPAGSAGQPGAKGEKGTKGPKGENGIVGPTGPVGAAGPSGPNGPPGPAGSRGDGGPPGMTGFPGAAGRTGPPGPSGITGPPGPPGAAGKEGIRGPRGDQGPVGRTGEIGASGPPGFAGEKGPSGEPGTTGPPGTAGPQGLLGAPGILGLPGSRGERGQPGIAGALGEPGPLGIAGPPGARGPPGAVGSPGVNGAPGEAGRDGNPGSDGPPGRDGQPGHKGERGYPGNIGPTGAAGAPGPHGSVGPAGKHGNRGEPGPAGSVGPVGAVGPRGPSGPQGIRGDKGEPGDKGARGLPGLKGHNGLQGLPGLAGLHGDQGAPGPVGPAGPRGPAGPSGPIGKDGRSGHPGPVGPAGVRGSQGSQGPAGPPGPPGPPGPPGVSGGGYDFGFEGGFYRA

T1 sequence (P02454 152-1207 limits assumed): as the sequence (P02454 152-1207, chain 1 of 2) above
T1 sequence (P02466 86-1125 limits assumed): as the sequence (P02466 86-1125, chain 2 of 2) above
T2 sequence (P02454 152-1207 limits assumed): as the sequence (P02454 152-1207, chain 1 of 2) above
T2 sequence (P02466 86-1125 limits assumed): as the sequence (P02466 86-1125, chain 2 of 2) above

Molecule: IR-Ahx-^SG9P9O9: IRDye-800CW labeled sequence-scrambled control peptide with Ahx spacer, SEQ ID NO: 8 ({IRDye800CW-Ahx}-PGPGPGPPPPGPGPPPGPPPGGPPPPG; numbers in words are those of the source; also: 9 O residues (G9P9O9), places not given here)
tumor accumulation (NIRF imaging) [4]: no peptide accumulation
tumor accumulation (in vivo NIRF imaging) [5]: minimal accumulation at the tumor sites
tumor accumulation (in vivo NIRF imaging) ([5]; listed as IR-Ahx-SG9P9O9): cleared out
triple helical folding capacity (CD melting) ([1]; sequence-scrambled peptide): no triple helix forming capacity

Molecule: IR′-Ahx-^SG9P9O9: IRDye 680RD labeled sequence-scrambled peptide, SEQ ID NO: 8 ({IRDye 680RD-Ahx}-PGPGPGPPPPGPGPPPGPPPGGPPPPG; not fully specified; numbers in words are those of the source; also: 9 O residues (G9P9O9), places not given here)
skeletal uptake (whole body NIRF) [6]: signal only from the digestive system

B1: CF^SG9P9O9, sequence-scrambled control peptide, CF-GGG-PGOGPGPOPOGOGOPPGOOPGGOOPPG (peptide)
peptide: {CF}-GGGPG[Hyp]GPGP[Hyp]P[Hyp]G[Hyp]G[Hyp]PPG[Hyp][Hyp]PGG[Hyp][Hyp]PPG
notes: Cannot fold into a triple helix; also called ^9G9P9O9; ^CG9P9O9
binding result [7]: no binding (tested: 6 µM)
binding result [8]: no binding (tested: 6 µM)

Continued, values first:

Tm (CD melting curve, triple helix) [1]: 51 °C
Molecule: CF-GGG-(GPP)4^NBGPP(GPP)4 [CF^NB(GPP)9]

UV triggered collagen binding as fraction of that of CF^NB(GPP)9 [2]: about one fourth
Tm (CD melting curve, triple helix) [1]: 51 °C
level of gelatin binding relative to CF^NB(GPP)9 [3]: an order of magnitude lower
Molecule: CF-GGG-(G^DP^DP)4^NBG^DP^DP(G^DP^DP)4 [CF^NB(G^DP^DP)9]
